The values below come from US9469617B2, “Molecules having certain pesticidal utilities, and intermediates, compositions, and processes related thereto” (priority 2014, dated 2016).

Holding throughout (assay type): in vivo
The test system of data set [1] is Cabbage Looper (CL) (Trichoplusia ni). Description: Bioassay on Cabbage Looper (CL), 128-well diet tray assay. To be noted: 168 h, Table ABC, 50 μg/cm^2 on artificial diet, second instar larvae, five to seven days, 25° C., read-out: CL % Control (or Mortality) rating. Summed up: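 Second-instar larvae (one to five per well) placed on artificial diet treated with 50 μg/cm^2 compound in 90:10 acetone-water, dried, eight wells per compound. Held at 25 °C, 14:10 light-dark for five to seven days; percent mortality per well, averaged over the eight wells.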

The subject of data set [2] is Beet Armyworm (BAW) (Spodoptera exigua). Description: Bioassay on Beet Armyworm (BAW), 128-well diet tray assay. To be noted: 168 h, Table ABC, 50 μg/cm^2 on artificial diet, second instar larvae, five to seven days, 25° C., read-out: BAW % Control (or Mortality) rating. Summed up: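 Artificial diet was surface-treated with 50 μg/cm^2 compound in 90:10 acetone-water and dried, then infested with one to five second-instar larvae per well. Trays were held 5–7 days at 25° C, 14:10 light-dark. Percent mortality was averaged over eight wells.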

In data set [3] the test system is Green Peach Aphid (GPA) (Myzus persicae). Description: Bioassay on Green Peach Aphid (GPA), foliar spray on cabbage seedlings. To be noted: 72 h, Table ABC, 200 ppm foliar spray on cabbage seedlings, graded after three days, Abbott corrected % control, read-out: GPA % Control (or Mortality) rating. As to the method: Certain molecules disclosed in this document were tested against GPA using procedures described in the following example. In the reporting of the results, the “GPA & YFM Rating Table” was used (See Table Section).
Cabbage seedlings grown in 3-inch pots, with 2-3 small (3-5 cm) true leaves, were used as test substrate. The seedlings were infested with 20-50 GPA (wingless adult and nymph stages) one day prior to chemical application. Four pots with individual seedlings were used for each treatment. Test compounds (2 mg) were dissolved in 2 mL of acetone/MeOH (1:1) solvent, forming stock solutions of 1000 ppm test compound. The stock solutions were diluted 5× with 0.025% Tween 20 in water to obtain the solution at 200 ppm test compound. A hand-held aspirator-type sprayer was used for spraying a solution to both sides of […] leaves until runoff. Reference plants (solvent check) were sprayed with the diluent only containing 20% by volume of acetone/MeOH (1:1) solvent. Treated plants were held in a holding room for three days at approximately 25° C. and ambient relative humidity (RH) prior to grading. Evaluation was conducted by counting the number of live aphids per plant under a microscope. Percent Control was measured by using Abbott's correction formula (W. S. Abbott, “A Method of Computing the Effectiveness of an Insecticide” J. Econ. Entomol. 18 (1925), pp. 265-267) as follows. Corrected % Control=100*(X−Y)/X where X=No. of live aphids on solvent check plants and Y=No. of live aphids on treated plants. The results are indicated in the table entitled “Table ABC: Assay Results” and “Table ABCD: Assay Results” (See Table Section).

Data set [4] relates to Yellow Fever Mosquito (YFM) (Aedes aegypti). Description: Bioassay on Yellow Fever Mosquito (YFM) larvae, 96-well plate. The note with it: Table ABC; about 1 day-old larvae, master plate 4000 ppm in DMSO diluted, scored on mortality after 3 days. Put shortly:
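Compounds from 4000 ppm DMSO master solutions, diluted in 90:10 water:acetone, dispensed into wells and infested with about 1-day-old larvae in liver-powder water. Held covered at room temperature for 3 days, then each well scored for mortality; 6 replicate plates per master.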

Structures are written as SMILES.

The term mortality denotes the percentage killed. On to `O=C(/N=C1\SCC(=O)N1c1ccccc1C1CC1)NC1Cc2ccc(-c3ncn(-c4ccc(OC(F)(F)F)cc4)n3)cc2C1` (centres unmarked) [F15, (Z)-1-(3-(2-Cyclopropylphenyl)-4-oxothiazolidin-2-ylidene)-3-(5-(1-(4-(trifluoromethoxy)phenyl)-1H-1,2,4-triazol-3-yl)-2,3-dihydro-1H-inden-2-yl)urea], for which the mortality at 50 µg/cm2 in data set [1] and in data set [2] was 50 to 100% throughout. Also, the mortality at 200 ppm in data set [3] fell in the range of 0 to 80%. In data set [4], the “YFM % Control (or Mortality) rating” value is “A (80-100)”.

Turning to `CC1S/C(=N\C(=O)NC2Cc3ccc(-c4ncn(-c5ccc(OC(F)(F)F)cc5)n4)cc3C2)N(c2ccccc2C(C)C)C1=O` (centres unmarked) [FA2, (Z)-1-(3-(2-isopropylphenyl)-5-methyl-4-oxothiazolidin-2-ylidene)-3-(5-(1-(4-(trifluoromethoxy)phenyl)-1H-1,2,4-triazol-3-yl)-2,3-dihydro-1H-inden-2-yl)urea], the mortality at 50 µg/cm2 in data set [1] and in data set [2] was 50 to 100% each time. The mortality at 200 ppm in data set [3] lay in the range of 0 to 80%. Moreover, the “YFM % Control (or Mortality) rating” value in data set [4] is recorded as “A (80-100)”.
